{"source": "PubChem BioAssay AID1259246", "about": "(Broad Institute, 2017)", "note": "Values joined by “and” are separate entries in the source; they are usually repeats but may differ in a detail not shown here. Equal values may be shown once. Results filed as inconclusive are left out. Active and inactive are the calls of the source.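 Rule for the calls: active = valid dose-response fit whose half-maximal growth-inhibiting concentration is at or below a set limit above the top tested dose; inconclusive = flat fit with effect between 30 and 70%, or poor fit; inactive = half-maximal concentration above a set limit.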", "data": [{"experiment": "antibacterial activity against Clostridioides difficile – 10-point retest, dose response (AID 1259246)", "details": "Clostridioides difficile clinical isolate growth, OD600, 24 h; at 60 µM (top of the series)", "values": [{"smiles": "C[C@@H]1CN([C@H](C)CO)C(=O)c2cc(C#CCc3ccccc3)cnc2O[C@H]1CN(C)CC1CCCC1", "activity change, negative = inhibition": "19.2% (inactive)"}, {"smiles": "COc1ccc(CNC(=O)C[C@H]2C[C@@H]3c4cc(NC(=O)C5CCC5)ccc4O[C@@H]3[C@@H](CO)O2)cc1", "activity change, negative = inhibition": "-1.06% (inactive)"}, {"smiles": "O=C(C[C@H]1C[C@@H]2c3cc(NC(=O)C4CCC4)ccc3O[C@@H]2[C@@H](CO)O1)NCCc1ccccc1", "activity change, negative = inhibition": "0.211% (inactive)"}, {"smiles": "CN(C)CC(=O)N1[C@@H](C#N)[C@H](c2ccc(C#CC3CCCCC3)cc2)[C@@H]1CO", "activity change, negative = inhibition": "0.345% (inactive)"}, {"smiles": "C[C@H]1CN([C@@H](C)CO)C(=O)c2cccc(NC(=O)Nc3ccc(C(F)(F)F)cc3)c2O[C@H]1CN(C)S(=O)(=O)c1ccc(Cl)cc1", "activity change, negative = inhibition": "28.2% (inactive)"}, {"smiles": "N#C[C@@H]1[C@@H](c2ccc(C#Cc3ccccc3F)cc2)[C@H](CO)N1C(=O)C1CCCCC1", "activity change, negative = inhibition": "9.57% (inactive)"}, {"smiles": "COc1ccccc1C#Cc1ccc([C@H]2[C@@H](CO)N(C(=O)C3CCCCC3)[C@H]2C#N)cc1", "activity change, negative = inhibition": "2.35% (inactive)"}, {"smiles": "Cc1noc(C)c1S(=O)(=O)Nc1ccc2c(c1)C(=O)N([C@@H](C)CO)C[C@H](C)[C@@H](CN(C)Cc1ccc3c(c1)OCO3)OCCCC[C@@H](C)O2", "activity change, negative = inhibition": "3.17% (inactive)"}, {"smiles": "O=C(C[C@H]1C[C@@H]2c3cc(NC(=O)C4CCC4)ccc3O[C@@H]2[C@@H](CO)O1)NCc1ccccc1", "activity change, negative = inhibition": "6.59% (inactive)"}, {"smiles": "O=C(C[C@H]1C[C@@H]2c3cc(NC(=O)C4CCC4)ccc3O[C@@H]2[C@@H](CO)O1)NCc1ccncc1", "activity change, negative = inhibition": "-0.413% (inactive)"}]}, {"experiment": "antibacterial activity against Clostridioides difficile – 10-point retest, dose response (AID 1259246)", "details": "Clostridioides difficile clinical isolate growth, OD600, 24 h; at 110 µM (top of the series)", "values": [{"smiles": "O=C(C[C@@H]1CC[C@H]2[C@@H](COC[C@H](O)CN2S(=O)(=O)c2ccc(Cl)cc2)O1)NCc1ccc(Cl)c(Cl)c1", "activity change, negative = inhibition": "55.9% (inactive)"}]}, {"experiment": "antibacterial activity against Clostridioides difficile – 10-point retest, dose response (AID 1259246)", "details": "Clostridioides difficile clinical isolate growth, OD600, 24 h; at 120 µM (top of the series)", "values": [{"smiles": "COc1ccc(CN(C)C[C@@H]2OCCCC[C@@H](C)Oc3ccc(NC(=O)Nc4cccc5ccccc45)cc3C(=O)N([C@H](C)CO)C[C@H]2C)cc1", "activity change, negative = inhibition": "44.3% (inactive)"}, {"smiles": "C[C@@H]1CN([C@H](C)CO)C(=O)c2cccc(NC(=O)Nc3ccc(C(F)(F)F)cc3)c2O[C@@H]1CN(C)C(=O)Nc1ccc(F)cc1", "activity change, negative = inhibition": "-4.05% (inactive)"}, {"smiles": "C[C@H](CO)N1C[C@H](C)[C@@H](CN(C)Cc2cccnc2)Oc2cc(Br)ccc2S1(=O)=O", "activity change, negative = inhibition": "-1.18% (inactive)"}, {"smiles": "C[C@@H]1CN([C@@H](C)CO)S(=O)(=O)c2ccc(/C=C/c3ccccc3)cc2O[C@H]1CN(C)C(=O)Nc1ccc(F)cc1", "activity change, negative = inhibition": "32.6% (inactive)"}, {"smiles": "C[C@@H]1CN([C@H](C)CO)C(=O)Cc2cc(NC(=O)C3CCCCC3)ccc2O[C@@H]1CN(C)Cc1ccc(-c2ccccc2)cc1", "activity change, negative = inhibition": "25.3% (inactive)"}, {"smiles": "CO[C@@H]1CN(C)C(=O)c2ccc(NC(=O)c3ccc(-c4ccccc4)cc3)cc2OC[C@H](C)NC[C@H]1C", "activity change, negative = inhibition": "8.57% (inactive)"}, {"smiles": "C[C@H](CO)N1C[C@H](C)[C@@H](CN(C)Cc2cccnc2)Oc2cc(C#CC3CCCCC3)ccc2S1(=O)=O", "activity change, negative = inhibition": "27.1% (inactive)"}, {"smiles": "C[C@H](CO)N1C[C@H](C)[C@@H](CN(C)Cc2ccc(-c3ccccc3)cc2)Oc2c(NC(=O)Nc3ccc4c(c3)OCO4)cccc2C1=O", "activity change, negative = inhibition": "2.74% (inactive)"}, {"smiles": "C[C@H]1CN([C@@H](C)CO)C(=O)c2cccc(NC(=O)Nc3ccccc3)c2O[C@H]1CN(C)Cc1ccc(Oc2ccccc2)cc1", "activity change, negative = inhibition": "24.3% (inactive)"}, {"smiles": "C[C@@H]1CN([C@@H](C)CO)C(=O)Cc2cc(NC(=O)C3CC3)ccc2O[C@H]1CN(C)Cc1ccc(-c2ccccc2)cc1", "activity change, negative = inhibition": "25% (inactive)"}, {"smiles": "C[C@H]1CN([C@@H](C)CO)S(=O)(=O)c2ccc(C3=CCCCC3)cc2O[C@@H]1CN(C)Cc1cccnc1", "activity change, negative = inhibition": "13.2% (inactive)"}, {"smiles": "C[C@@H]1CN([C@H](C)CO)C(=O)Cc2cc(NC(=O)CCCN(C)C)ccc2O[C@H]1CN(C)C", "activity change, negative = inhibition": "0.476% (inactive)"}, {"smiles": "CC(C)CC#Cc1ccc2c(c1)O[C@H](CN(C)Cc1ccc(F)cc1)[C@H](C)CN([C@H](C)CO)S2(=O)=O", "activity change, negative = inhibition": "28% (inactive) and 85.7% (inactive)"}, {"smiles": "CC(C)CC#Cc1ccc2c(c1)O[C@@H](CN(C)Cc1ccc3c(c1)OCO3)[C@H](C)CN([C@@H](C)CO)S2(=O)=O", "activity change, negative = inhibition": "11% (inactive)"}, {"smiles": "COc1ccc(-c2ccc([C@H]3[C@H](C#N)N(C(=O)NC4CCCCC4)[C@H]3CO)cc2)cc1", "activity change, negative = inhibition": "7.21% (inactive)"}, {"smiles": "N#C[C@H]1[C@H](c2ccc(C#Cc3ccccc3F)cc2)[C@@H](CO)N1C(=O)C1CCCCC1", "activity change, negative = inhibition": "24.9% (inactive)"}, {"smiles": "C[C@H]1CCCCO[C@H](CN(C)S(=O)(=O)c2ccc(F)cc2)[C@@H](C)CN([C@@H](C)CO)C(=O)c2cc(NC(=O)Nc3cccc4ccccc34)ccc2O1", "activity change, negative = inhibition": "21.6% (inactive)"}, {"smiles": "C[C@@H]1CN([C@H](C)CO)C(=O)c2cc(NC(=O)Nc3cccc4ccccc34)ccc2O[C@@H](C)CCCCO[C@@H]1CN(C)S(=O)(=O)c1ccc(F)cc1", "activity change, negative = inhibition": "12% (inactive)"}, {"smiles": "COc1ccc(NC(=O)Nc2cccc3c2O[C@H](CN(C)Cc2ccc(Oc4ccccc4)cc2)[C@H](C)CN([C@H](C)CO)C3=O)cc1", "activity change, negative = inhibition": "-0.653% (inactive)"}, {"smiles": "C[C@@H]1CN([C@@H](C)CO)C(=O)c2cccc(NC(=O)Nc3ccc4c(c3)OCO4)c2O[C@@H]1CN(C)Cc1ccccc1", "activity change, negative = inhibition": "19.1% (inactive)"}, {"smiles": "CO[C@H]1CN(C)C(=O)c2ccc(NC(=O)c3nc4ccccc4s3)cc2OC[C@H](C)NC[C@@H]1C", "activity change, negative = inhibition": "-6.99% (inactive)"}, {"smiles": "Cc1noc(C)c1NC(=O)Nc1cccc2c1O[C@H](CN(C)Cc1ccc(Cl)c(Cl)c1)[C@H](C)CN([C@@H](C)CO)C2=O", "activity change, negative = inhibition": "28.7% (inactive)"}, {"smiles": "COc1ccc(NC(=O)Nc2cccc3c2O[C@@H](CN(C)Cc2ccc(Oc4ccccc4)cc2)[C@@H](C)CN([C@H](C)CO)C3=O)cc1", "activity change, negative = inhibition": "38.3% (inactive)"}, {"smiles": "C[C@H]1CN([C@@H](C)CO)C(=O)c2cccc(NC(=O)Nc3ccc(C(F)(F)F)cc3)c2O[C@H]1CN(C)S(=O)(=O)c1ccc(Cl)cc1", "activity change, negative = inhibition": "51.5% (inactive)"}, {"smiles": "CC(C)CC#Cc1ccc2c(c1)O[C@@H](CN(C)Cc1ccc3c(c1)OCO3)[C@@H](C)CN([C@H](C)CO)S2(=O)=O", "activity change, negative = inhibition": "23.6% (inactive)"}, {"smiles": "C[C@H]1CN([C@@H](C)CO)C(=O)Cc2cc(NC(=O)CCCN(C)C)ccc2O[C@@H]1CN(C)Cc1ccc(Oc2ccccc2)cc1", "activity change, negative = inhibition": "32.2% (inactive)"}, {"smiles": "C[C@H](CO)N1C[C@H](C)[C@H](CN(C)Cc2ccc(Oc3ccccc3)cc2)Oc2c(NC(=O)Nc3ccccc3)cccc2C1=O", "activity change, negative = inhibition": "10.9% (inactive)"}, {"smiles": "Cc1ccc(S(=O)(=O)N2C[C@@H](O)COC[C@H]3O[C@H](CC(=O)NCc4ccccc4Cl)CC[C@@H]32)cc1", "activity change, negative = inhibition": "13.4% (inactive)"}, {"smiles": "CNC[C@H]1Oc2ccc(N)cc2CC(=O)N([C@@H](C)CO)C[C@H]1C", "activity change, negative = inhibition": "-3.55% (inactive)"}, {"smiles": "CO[C@H]1CN(C)C(=O)c2ccc(NC(=O)c3ccc(-c4ccccc4)cc3)cc2OC[C@@H](C)NC[C@H]1C", "activity change, negative = inhibition": "31.5% (inactive)"}, {"smiles": "COc1ccc(-c2ccc([C@H]3[C@H](C#N)N[C@H]3CO)cc2)cc1", "activity change, negative = inhibition": "-2.73% (inactive)"}, {"smiles": "C[C@@H]1CN([C@@H](C)CO)C(=O)Cc2cc(NC(=O)C3CC3)ccc2O[C@@H]1CN(C)Cc1ccc(C(F)(F)F)cc1", "activity change, negative = inhibition": "21.2% (inactive)"}, {"smiles": "CO[C@@H]1CN(C)C(=O)c2cc(NC(=O)c3ccc(-c4ccccc4)cc3)ccc2OC[C@H](C)NC[C@H]1C", "activity change, negative = inhibition": "9.68% (inactive)"}, {"smiles": "O=C(N[C@H]1CC[C@H](CCNS(=O)(=O)c2ccc(Cl)cc2)O[C@H]1CO)c1cnccn1", "activity change, negative = inhibition": "-7.94% (inactive)"}, {"smiles": "Cc1ccc(-c2ccc3c(c2)O[C@@H](CN(C)Cc2cccnc2)[C@H](C)CN([C@@H](C)CO)S3(=O)=O)cc1", "activity change, negative = inhibition": "10.2% (inactive)"}, {"smiles": "C[C@@H]1CN([C@H](C)CO)C(=O)Cc2cc(NC(=O)CCCN(C)C)ccc2O[C@H]1CN(C)Cc1ccc(Oc2ccccc2)cc1", "activity change, negative = inhibition": "17.1% (inactive)"}, {"smiles": "CO[C@H]1CN(C)C(=O)c2cc(NC(=O)Nc3ccc4c(c3)OCO4)ccc2OC[C@H](C)NC[C@H]1C", "activity change, negative = inhibition": "-6.51% (inactive)"}]}, {"experiment": "antibacterial activity against Clostridioides difficile – 10-point retest, dose response (AID 1259246)", "details": "Clostridioides difficile clinical isolate growth, OD600, 24 h; at 135 µM (top of the series)", "values": [{"smiles": "COc1ccc(NC(=O)N(C)C[C@@H]2Oc3ccc(NC(=O)CCCN(C)C)cc3CC(=O)N([C@H](C)CO)C[C@H]2C)cc1", "activity change, negative = inhibition": "1.15% (inactive)"}, {"smiles": "C[C@@H]1CN([C@@H](C)CO)C(=O)Cc2cc(NC(=O)CCCN(C)C)ccc2O[C@@H]1CN(C)Cc1ccc(Oc2ccccc2)cc1", "activity change, negative = inhibition": "18% (inactive)"}, {"smiles": "C[C@@H]1CN([C@H](C)CO)C(=O)Cc2cc(NC(=O)c3ccncc3)ccc2O[C@@H]1CN(C)Cc1ccc(-c2ccccc2)cc1", "activity change, negative = inhibition": "20.6% (inactive)"}, {"smiles": "C[C@@H]1CN([C@H](C)CO)C(=O)Cc2cc(NC(=O)C3CC3)ccc2O[C@H]1CN(C)C", "activity change, negative = inhibition": "32.9% (inactive)"}, {"smiles": "C[C@@H]1CN([C@@H](C)CO)C(=O)Cc2cc(NC(=O)CCCN(C)C)ccc2O[C@H]1CN(C)C", "activity change, negative = inhibition": "-6.21% (inactive)"}, {"smiles": "C[C@@H]1CN([C@H](C)CO)C(=O)c2cc(NC(=O)Nc3ccc4c(c3)OCO4)ccc2O[C@H]1CN(C)Cc1ccccc1", "activity change, negative = inhibition": "-5.34% (inactive)"}, {"smiles": "C[C@H]1CN([C@@H](C)CO)C(=O)Cc2cc(NC(=O)CCCN(C)C)ccc2O[C@H]1CN(C)Cc1ccc(Oc2ccccc2)cc1", "activity change, negative = inhibition": "10.5% (inactive)"}, {"smiles": "O=C(C[C@H]1C[C@@H]2c3cc(NC(=O)C4CCC4)ccc3O[C@@H]2[C@@H](CO)O1)NCc1ccc2c(c1)OCO2", "activity change, negative = inhibition": "-9.69% (inactive)"}, {"smiles": "COc1ccc(S(=O)(=O)N(C)C[C@@H]2Oc3ccc(NC(=O)CCCN(C)C)cc3CC(=O)N([C@H](C)CO)C[C@H]2C)cc1", "activity change, negative = inhibition": "-7.92% (inactive)"}, {"smiles": "COc1ccc(S(=O)(=O)N(C)C[C@H]2Oc3ccc(NC(=O)C4CC4)cc3CC(=O)N([C@H](C)CO)C[C@H]2C)cc1", "activity change, negative = inhibition": "-2.76% (inactive)"}, {"smiles": "C[C@@H]1CN([C@H](C)CO)C(=O)Cc2cc(NS(C)(=O)=O)ccc2O[C@@H]1CN(C)Cc1ccc(-c2ccccc2)cc1", "activity change, negative = inhibition": "20% (inactive)"}, {"smiles": "C[C@H]1CN([C@@H](C)CO)C(=O)Cc2cc(NC(=O)CCCN(C)C)ccc2O[C@@H]1CN(C)Cc1ccc(-c2ccccc2)cc1", "activity change, negative = inhibition": "-3.4% (inactive)"}]}]}
